From the supplement of paper PMC10307832

Columns and labels:
Experiment in all cases: relative viability (nuclei count vs DMSO), 5 days (fraction); higher = more cells survive
[1] = compound: C1=CC=C2C(=C1)C=CC(=C2SSC3=C(C=CC4=CC=CC=C43)O)O [IPA-3] + Cc1cc(Nc2cc(N3CCN(C)CC3)nc(Sc3ccc(NC(=O)C4CC4)cc3)n2)n[nH]1 [Tozasertib] (partner 0.1 µM)
Summary of the method: (§1)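 Lung cancer cell lines were pin-tool dosed in 1536-well plates on the day after seeding, with either a lone drug or a fixed anchor-drug dose plus five library-drug doses (not always all listed) in √10 steps. Nuclei were counted on 4× images after 5 days. Relative viability is the ratio of treated-well to vehicle-well nuclei counts, with each value a median of duplicate plates.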

[2] = compound: Cc1ccc(-n2nc(C(C)(C)C)cc2NC(=O)Nc2ccc(OCCN3CCOCC3)c3ccccc23)cc1 [Doramapimod] + CCNC(=O)c1noc(-c2cc(C(C)C)c(O)cc2O)c1-c1ccc(CN2CCOCC2)cc1 [Luminespib] (partner 0.01 µM)
Summary of the method: as §1

[3] = compound: Cc1ccc(-n2nc(C(C)(C)C)cc2NC(=O)Nc2ccc(OCCN3CCOCC3)c3ccccc23)cc1 [Doramapimod] + Cc1cc(Nc2cc(N3CCN(C)CC3)nc(Sc3ccc(NC(=O)C4CC4)cc3)n2)n[nH]1 [Tozasertib] (partner 0.1 µM)
Summary of the method: as §1

[4] = compound: Cn1c(Nc2ccc(C(F)(F)F)cc2)nc2cc(Oc3ccnc(-c4ncc(C(F)(F)F)[nH]4)c3)ccc21 [RAF265] + NC(=O)Nc1cc(-c2cccc(F)c2)sc1C(=O)N[C@H]1CCCNC1 [AZD7762] (partner 0.2 µM)
Summary of the method: as §1

Cell Line	relative viability ([1]; first compound 0.2 µM)	relative viability ([1]; first compound 0.6325 µM)	relative viability ([1]; first compound 2 µM)	relative viability ([1]; first compound 6.325 µM)	relative viability ([1]; first compound 20 µM)	relative viability ([2]; first compound 0.02 µM)	relative viability ([2]; first compound 0.06325 µM)	relative viability ([2]; first compound 0.2 µM)	relative viability ([2]; first compound 0.6325 µM)	relative viability ([2]; first compound 2 µM)	relative viability ([3]; first compound 0.02 µM)	relative viability ([3]; first compound 0.06325 µM)	relative viability ([3]; first compound 0.2 µM)	relative viability ([3]; first compound 0.6325 µM)	relative viability ([3]; first compound 2 µM)	relative viability ([4]; first compound 0.01 µM)	relative viability ([4]; first compound 0.03162 µM)	relative viability ([4]; first compound 0.1 µM)	relative viability ([4]; first compound 0.3162 µM)	relative viability ([4]; first compound 1 µM)
NCI-H2342	0.526	0.505	0.6	0.57	0.596	0.67	0.749	0.701	0.852	0.725	0.494	0.508	0.554	0.584	0.621	0.507	0.558	0.539	0.498	0.474
LCLC-97TM1	0.255	0.178	0.259	0.216	0.189	0.789	0.689	0.795	0.705	0.537	0.22	0.228	0.21	0.266	0.142	0.203	0.323	0.259	0.167	0.0766
NCI-H3122	0.431	0.4	0.381	0.509	0.428	0.11	0.0996	0.108	0.0726	0.092	0.439	0.408	0.448	0.431	0.365	1.03	1.17	1.02	0.949	0.862
NCI-H1395	0.732	0.761	0.72	0.733	0.8	0.621	0.605	0.641	0.79	0.679	0.765	0.778	0.783	0.761	0.717	0.403	0.382	0.422	0.419	0.393
NCI-H2009	0.805	0.681	0.834	0.718	0.725	1.05	1.17	1.12	1.23	1.04	0.727	0.799	0.696	0.663	0.556					
NCI-H1651	0.727	0.613	0.883	0.708	0.691	0.76	0.863	0.87	0.93	0.758	0.726	0.703	0.75	0.719	0.608	0.508	0.497	0.401	0.406	0.365
HARA	0.133	0.132	0.153	0.485	0.118	0.779	0.688	0.873		0.576	0.128	0.112	0.106		0.107	0.315	0.128	0.303	0.419	0.221
NCI-H1703																0.132	0.133	0.126	0.142	0.099
NCI-H1650	0.485	0.414	0.489	0.421	0.517	0.186	0.171	0.195	0.176	0.209	0.416	0.408	0.395	0.382	0.357					
NCI-H1648	0.753	0.545	0.646	0.391	0.482						0.442	0.498	0.58	0.353	0.481	0.698	0.514	0.804	0.758	0.567
NCI-H1792						0.396	0.345	0.385	0.413	0.356						0.638	0.568	0.475	0.11	0.0984
COR-L23	0.197	0.201	0.344	0.25	0.165	0.71	0.659	0.787	0.741	0.541	0.268	0.22	0.173	0.178	0.176					
NCI-H1623	0.418	0.433	0.432	0.47	0.433	0.555	0.505	0.52	0.571	0.464	0.424	0.426	0.411	0.46	0.318					
NCI-H2228	0.245	0.255	0.29	0.301	0.294	0.151	0.151	0.107	0.14	0.131	0.263	0.296	0.258	0.263	0.242					
NCI-H661	0.328	0.356	0.358	0.338	0.347	0.99	0.917	0.986	0.914	0.909	0.36	0.353	0.342	0.366	0.346					
HCC-366	0.176	0.132	0.0972	0.141	0.0773						0.117	0.129	0.15	0.0878	0.0672	0.25	0.253	0.396	0.321	0.157
SK-LU-1	0.328	0.36	0.338	0.339	0.302	0.208	0.204	0.172	0.218	0.186	0.348	0.41	0.314	0.347	0.277					
SW 1573	0.16	0.23	0.222	0.155	0.136	0.235	0.181	0.207	0.692	0.185	0.267	0.208	0.198	0.22	0.157					
NCI-H2023	0.321	0.347	0.365	0.39	0.424	0.656	0.77	0.74	0.929	0.614	0.333	0.352	0.3	0.304	0.247					
SK-MES-1	0.991	0.775	0.933	0.804	0.694	0.725	0.563	0.694	0.836	0.601	0.94	0.869	0.81	0.856	0.781					
